Source: US20200179369A1, “TREATMENT OF DIABETIC NEPHROPATHY” (TAKEDA GMBH, priority 2015, published 2020)

Assays:
female db/db mice = assay: HbA1c, 4 weeks treatment in female db/db mice; type: in vivo; conditions: 28 days, vehicle 9.06%
Method: Female db/db mice were purchased from Taconic (Lille Skensved, Denmark) at 5-6 weeks of age and were maintained under standard conditions (5 animals/cage; 12 h light-dark cycle; room temperature of 22±2° C.; relative humidity of 60±15%). All mice had free access to water and standard chow (Provimi Kliba, Kaiseraugst, Switzerland). Four days upon arrival animals were randomized based on body weight and levels of glycated hemoglobin 1c (HbA1c). At 7 weeks of age, animals were treated daily by oral gavage with vehicle (4% methylcellulose) or with Compound A (composed in aqueous 4% methylcellulose) using doses of 1, 3 and 10 mg/kg s.i.d. (doses related to free base). The required dose was applied in a volume of 10 ml/kg body weight. Each dose group consisted of 10 animals. At the end of the treatment period plasma samples were isolated for determination of HbA1c levels. All experimental procedures were conducted according to the German Animal Protection Law.
HbA1c was analyzed from tail-tip-blood (HbA1c determination before treatment) as well as from blood collected from the retro-orbital venous plexus (HbA1c determination after 4 weeks treatment) using the Hemoglobin A1c Test (Siemens, Bad Nauheim, Germany).
Values are presented as means ±SEM. Statistical differences were determined using one-way-ANOVA followed by a post-hoc analysis with Dunnet's correction (GraphPad Prism).
Definition of significance: n.s.=not significant (p>0.05) • *, **, ***=p<0.05, <0.01, <0.001

[1] = system: uninephrectomized db/db mice; assay: Diabetic nephropathy in uninephrectomized db/db mice, 8 week treatment starting 4 weeks after the uninephrectomy; type: in vivo; conditions: 8 weeks starting 4 weeks after uninephrectomy
Method: Male 5-week-old BKS.Cg-+Lepr^db/+Lepr^db (db/db) mice were purchased from CLEA Japan, Inc. All mice were fed with a standard diet (CE-2, CLEA Japan, Inc.) and tap water ad libitum.
Compound A was obtained from Takeda GmbH, Konstanz, Germany. Irbesartan was purchased from LKT Laboratories, Inc (USA).
In 6 week old male db/db mice an unilateral nephrectomy was performed. Under the anesthesia with isoflurane inhalation, the right kidney was removed from the mice. After 4-week recovery period, blood samples were obtained by the puncture of facial vein and blood level of glycosylated hemoglobin (GHb) was measured by automated HPLC-based GHb analyzer (HLC-723 G8, TOSOH, Japan). After the separation of plasma samples by centrifugation, also plasma levels of glucose (PG) were measured by Autoanalyzer 7180 (Hitachi, Japan). Urine samples were collected for a 8 h time-period using metabolic cages and urine creatinine level was measured by Autoanalyzer 7180. After desaltation of urine samples with PD MiniTrap G-25 column (GE healthcare, UK), urinary levels of albumin were measured by ELISA, and urinary albumin/creatinine ratio (UACR) was calculated.
Compound A (1, 3 and 10 mg/kg, QD), roflumilast (3 mg/kg, QD) and irbesartan (50 mg/kg, QD) were suspended in 0.5% methyl cellulose solution and orally administered to mice for 8 weeks starting 4 weeks after the uninephrectomy.
At the end of the 8 weeks once daily administration blood, plasma and urine samples were obtained according to the same methods as described above. GHb, PG, urinary creatinine and albumin were measured and UACR was calculated. Body weight (BW) was measured every week during the treatment.
For evaluation of the effects of Compound A, statistical differences between vehicle- and Compound A treated groups were analyzed with two-tailed Williams' test for PG and BW and two-tailed Shirley-Williams' test for UACR and GHb. The P-values less than 0.05 were considered statistically significant in two-tailed Williams' test or Shirley-Williams' test.
For roflumilast and irbesartan, statistical differences between vehicle- and compounds-treated groups were analyzed with Student's t-test for GHb, PG and BW and Welch test for UACR. The P-values less than 0.05 were considered statistically significant in Student's t-test and Welch test.

CCOc1cc2c(cc1OC)C(c1ccc(=O)n(C)c1)=N[C@@H]1CC[C@@H](O)C[C@H]21 [Compound A, 5-((2R,4aR,10bR)-9-Ethoxy-2-hydroxy-8-methoxy-1,2,3,4,4a,10b-hexahydro-phenanthridin-6-yl)1-methyl-1H-pyridin-2-one]
mean HbA1c (female db/db mice; 1 mg/kg oral s.i.d.): 7.27% | mean HbA1c (female db/db mice; 3 mg/kg oral s.i.d.): 7.06% | mean HbA1c (female db/db mice; 10 mg/kg oral s.i.d.): 6.16% | effect on increase of urinary albumin/creatinine ratio (UACR) ([1]; 1 mg/kg QD oral): significantly suppressed the increase of UACR | effect on increase of urinary albumin/creatinine ratio (UACR) ([1]; 3 mg/kg QD oral): almost completely inhibited the increase of UACR | effect on body weight ([1]; 10 mg/kg QD oral): slightly, but statistically significantly, suppressed the increase of body weight | effect on increase of urinary albumin/creatinine ratio (UACR) ([1]; 10 mg/kg QD oral): almost completely inhibited the increase of UACR | effect on blood level of glycosylated hemoglobin (GHb) ([1]; 1, 3 and 10 mg/kg QD oral): significantly inhibited the elevation of GHb and PG in a dose-dependent manner | effect on plasma levels of glucose (PG) ([1]; 1, 3 and 10 mg/kg QD oral): significantly inhibited the elevation of GHb and PG in a dose-dependent manner
